Assay results published in patent publication US11413328B2, “Methods for treating inflammatory conditions of the lungs” (priority 2016, dated 2022).
Bridges are numbered along the chain shown (N, C = ends). Where no end group is shown, it is not given here.

Tests used:
[1] = system: murine house dust mite driven model of allergic asthma; experiment: Cell counts in BALF, prophylactic treatment in HDM asthma model (Example 9); type: in vivo, BALB/c mice; settings: prophylactic oral 0.4 mg/kg TID day 12 to day 14
Protocol: (§1) Female 7-10 weeks old BALB/c mice were randomly allocated into 5 study groups one day prior to study start and subcutaneously (SC) sensitized to house dust mite (100 μg HDM in 200 μL saline plus Freund's complete adjuvant in 0.9% saline). The mice were treated with hBD-2 orally and intranasally respectively at a dose of 1.2 mg/kg/day (0.4 mg/kg TID) starting on day 12 in the morning and continued TID at approximately 6 hours intervals. The last dose was administered on day 14 one hour prior to challenge. The total number of doses were 8 doses or a total of […] hBD-2. Mice were then intranasally (IN) challenged with HDM on day 14 (HDM 25 μg in 50 μL of saline).
Airway inflammation: At 48 hours post challenge, bronchoalveolar lavage was performed washing the lungs with 3 volumes of cold PBS (0.4; 0.3 and 0.3 mL, total 1 mL). Total and differential leucocyte cell counts were determined on an automated haematological analyser Sysmex XT-2000iV.

[2] = system: murine, infection induced, severe, steroid-insensitive, neutrophilic, allergic airways disease model of asthma; experiment: Airway hyper-responsiveness (Flexivent), Ovalbumin/C. muridarum steroid-insensitive asthma model; type: in vivo, BALB/c mice; settings: Ova sensitized, C. muridarum infected mice; hBD-2 IN 5 mg/kg day 30, 32, 34; DEX IN 2 mg/kg day 32-34; vs Saline control
Protocol: (§2) Female 6-8 weeks old BALB/c mice were intraperitoneally (IP) sensitized to ovalbumin 50 μg with the adjuvant alum 1 mg in 200 μL 0.9% saline. Mice were intranasally (IN) challenged with Ova on day 12-13 and day 33-34 (10 μg in 50 μL sterile saline).

[3] = system: murine, infection induced, severe, steroid-insensitive, neutrophilic, allergic airways disease model of asthma; experiment: Differential leucocyte counts in BALF, Ovalbumin/C. muridarum steroid-insensitive asthma model; type: in vivo, BALB/c mice; settings: Ova sensitized, C. muridarum infected mice, hBD-2 IN 5 mg/kg day 30, 32, 34
Protocol: as §2
Airway inflammation: Differential leucocyte counts were obtained from May-Grunwald Giemsa stained BALF cells, using a light microscope.

[4] = system: murine house dust mite/Freunds complete adjuvant driven model of allergic asthma; experiment: Lung histopathology (H&E/PAS), HDM asthma model (Example 3); type: in vivo, BALB/c mice; settings: vs HDM challenged vehicle
Protocol: Treatment regime: Female 7-10 weeks old BALB/c mice randomly allocated into 4 study groups one day prior to study start were subcutaneously (SC) sensitized to house dust mite (100 μg HDM in 200 μL saline plus Freund's complete adjuvant in 0.9% saline). Mice were intranasally (IN) challenged with HDM on day 14 (HDM 25 μg in 50 μL of saline). hBD-2 was administered IN or orally (0.4 mg/kg TID IN; 0.4 mg/kg TID orally, 50 μL phosphate buffered saline) on day 14. The initial dose was administered 60 minutes prior to challenge, and the subsequent doses approximately 6 hours apart. […] Lungs from other 8 animals per group were inflated in situ with 10% buffered formalin, removed from thorax, placed individually in 10% buffered formalin, paraffin embedded in toto, sectioned and H&E/PAS stained. The paraffin blocks were retained for the IHC analysis. Cellular influx (mononuclears, eosinophils, neutrophils) was assessed semi-quantitatively on H&E stained slides separately for peri-bronchial/bronchiolar and perivascular space as follows: [table] Overall score for inflammation was calculated as sum of all individual scores.

[5] = system: murine house dust mite driven model of allergic asthma; experiment: Lung resistance and compliance, prophylactic treatment in HDM asthma model (Example 9); type: in vivo, BALB/c mice
Protocol: as §1
Lung function: Starting 48 hours after HDM challenge, measurements of lung resistance and lung compliance were carried out after methacholine challenge (3.125 MCH1; 6.25 MCH2; 12.5 MCH3 and 25 mg/mL MCH4) by anaesthetized, cannulated mice using DSI's Buxco Finepoint RC system. Data are represented as airway resistance at 10 mg/kg methacholine and as dose responsive curves.

[6] = system: murine house dust mite/Freunds complete adjuvant driven model of allergic asthma; experiment: Lung resistance and compliance after methacholine, HDM/Freunds adjuvant asthma model (Example 2); type: in vivo, BALB/c mice; settings: vs HDM challenged vehicle
Protocol: Female 7-10 weeks old BALB/c mice were randomly allocated into 7 study groups one day prior to study start and subcutaneously (SC) sensitized to house dust mite (100 μg HDM in 200 μL saline plus Freunds complete adjuvant in 0.9% saline). Mice were then intranasally (IN) challenged with HDM on day 14 (HDM 25 μg in 50 μL of saline). […] The initial dose was administered 60 minutes prior to challenge, and the subsequent doses approximately 6 hours apart. Lung function: Starting 48 hours after HDM challenge, measurements of lung resistance and lung compliance were carried out after methacholine challenge (3.125 MCH1; 6.25 MCH2; 12.5 MCH3 and 25 mg/mL MCH4) by anaesthetized, cannulated mice using DSI's Buxco Finepoint RC system. Data are represented as airway resistance at […] and as dose responsive curves.

[7] = Pharmacokinetics after single oral gavage; type: in vivo, NMRI mice; settings: oral 4 mg/kg in mice
Protocol: Pharmacokinetic study to establish pharmacokinetic profile of hBD-2 following single oral gavage of 4 mg/kg administration to NMRI mice.
21 female NMRI mice were dosed by oral gavage 5 ml/kg using a gavage tube and a 1 ml syringe according to the individual body weight obtained on the day of dosing. Urine was strived sampled at random time points by gently massaging the inguinal area of the abdomen. The first blood sample was taken using a submandibular sampling method. The second blood sample was collected from Isoflurane anaesthetized mice. Intestinal samples were taken after euthanasia. The abdomen of each mouse was opened and three sections of the intestines were sampled.

[8] = prophylactic intranasal 0.4 mg/kg TID day 12 to day 14
[9] = prophylactic oral 0.4 mg/kg TID day 12 to day 14

Question: Which results are given for “GIGDPVTCLKSGAICHPVFCPRRYKQIGTCGLPGTKCCKKP (disulfide 8-37, 15-30, 20-38 (inferred)) [hBD-2, human beta defensin 2]”?
Answer: neutrophil counts in BALF [1]: significantly inhibited; AHR (airway hyper-responsiveness) [2]: completely normalized; macrophages in BALF [3]: did not change; neutrophil count in BALF [3]: complete normalization; eosinophils in BALF ([3]; DEX IN 2 mg/kg day 32-34): did not change; increase in histological inflammation of lung tissue ([4]; intranasal 0.4 mg/kg TID day 14): effectively inhibited; increase in histological inflammation of lung tissue ([4]; oral 0.4 mg/kg TID day 14): effectively inhibited; decrease of pulmonary compliance [5, 8]: inhibiting; increase of airway resistance [5, 8]: inhibiting; decrease of pulmonary compliance [5, 9]: inhibiting; increase of airway resistance [5, 9]: inhibiting; decrease of pulmonary compliance ([6]; intranasal TID on day 14): effectively inhibited; increase of airway resistance ([6]; intranasal TID on day 14): effectively inhibited; decrease of pulmonary compliance ([6]; oral 0.4 mg/kg TID on day 14): effectively inhibited; increase of airway resistance / AHR ([6]; oral, hBD-2 0.4 mg/kg TID, dexamethasone 1 mg/kg BID, day 14): effectively inhibited; systemic availability after oral dosing [7]: not systemically available
